Consider 1 molecule from paper PMC9605374 (Marine Drugs, 2022).

The test system of one data set is PC3-DR cells. Nature of the data set: MTT assay with or without tariquidar pretreatment. The class given is cell-based, human. Conditions: 48 h, tariquidar 50 nM 30 min pretreatment. The method, then:
(§1) Number of replicates n = 3. […] Viability was measured using an MTT assay. Number of replicates n = 3.
As a next step, we investigated how NB interacts with p-gp. P-gp activity can be reduced in two distinct ways: (i) competitive inhibition through direct binding to the active pocket as the ligand itself; and (ii) allosteric/noncompetitive inhibition reducing the activity of a protein through binding to allosteric/regulatory sites or other means. […] Therefore, docetaxel binds to p-gp (while being excreted from the cell), competitively inhibiting p-gp-mediated calcein-AM excretion, which leads to calcein accumulation, resulting in more intense green fluoresce. To elucidate the mechanism of p-gp inhibition by NB (competitive vs. allosteric/noncompetitive inhibition), we co-treated PC3-DR cells with tariquidar (TQD), a selective noncompetitive p-gp inhibitor and NB, and examined the effect on cellular viability (Figure 8C). […]
The MTT assay was used to monitor the effect of the drugs on cell viability in terms of metabolic activity, as previously reported. […] Finally, 50 μL/well of DMSO were added to solve the formed formazan crystals produced by the metabolic active cells and Infinite F200PRO reader (TECAN, Männedorf, Switzerland) was used to measure the cell viability. […]
For orientation: Tetrazolium assays rely on reduction of a dye to a coloured formazan, in cell work by metabolically active cells.

Data set [1] has as its target p-glycoprotein (p-gp, MDR1) in PC3-DR cells (Homo sapiens, UniProt P08183). In words: Calcein-AM exclusion assay, p-glycoprotein activity.
Text: To further understand the interactions of NB and p-gp, and the effect of NB on p-gp activity, we performed a calcein-AM-exclusion assay. Consequently, p-gp overexpressing PC3-DR cells were chosen as a test model. This assay utilizes calcein-AM (calcein acetoxymethyl ester), a nonfluorescent dye that enters cells through passive diffusion and exits cells through p-gp. Metabolic active cells contain cytosolic esterases that hydrolyze calcein-AM into its green-fluorescent form (calcein). The green fluorescence can be further measured. However, in p-gp overexpressing cells, calcein-AM is excreted out of the cell before it is metabolized. […] Application of p-gp inhibitors, such as tariquidar (TQD), leads to the accumulation of calcein-AM/calcein inside the cells and, therefore, to increased fluorescence. […] In our experiments, PC3-DR cells were exposed to NB for 30 min followed by incubation with calcein-AM.
(A) Effect of NB on calcein accumulation (measures as green fluorescence) in PC3-DR cells. The effect was measures following 30 min incubation with the drug. P-gp inhibitor tariquidar (TQD, 50 nM) was used as a positive control. Number of replicates n = 3.
The experiment was performed as previously described [42]. […] The green fluorescence was measured with Infinite F200PRO reader (TECAN, Männedorf, Switzerland). […]
A further data set concerns p-gp in PC3-DR cells. Nature of the data set: Western blotting, p-gp expression. Format: cell-based, human. The settings on record: 48 h, up to 6 µM. The method, then:
as §1
It is important to note that a reduction in p-gp activity could be conditioned by p-gp degradation or cell death-related processes. Consequently, using a Western blotting analysis, we measured p-gp expressional levels in the treated PC3-DR cells. […] Thus, the observed effect on p-gp activity seems to be exclusively related to the interaction of NB with p-gp rather than result from any cell death-related events.
The Western blot assay was executed as previously described: 1 × 10^6 cells were seeded in Petri dishes (ø 6 cm, 5 mL/dish) and incubated overnight. On the next day, the cells were treated with the compounds in fresh culture media (5 mL/dish) for the indicated time. Next, cells were harvested with a cell scraper and lysed in lysis buffer including protease and phosphatase inhibitors cocktail (Roche, Mannheim, Germany). Cell debris were removed from the protein lysates via centrifugation. Afterwards, the cell-free protein mixtures were separated in gradient ready-made Mini-PROTEAN® TGX Stain-Free^TM gels (Bio-Rad, Hercules, CA, USA) using SDS-PAGE (sodium dodecylsulfate polyacrylamide gel electrophoresis). Then, the proteins were blotted onto ø 0.2 µm pore PVDF membrane. […] The signals were detected using the ECL chemiluminescence system (Thermo Scientific, Rockford, IL, USA).
Background: In western blotting, separated proteins are transferred to a membrane and probed.

Details of data set [2]: method as in PMID 27355960. The settings on record: no hemolytic activity; cited from earlier work.
For a further data set, the system named is LC3B-I/II in 22Rv1 cells. Nature of the data set: Western blotting, autophagy marker. The class given is cell-based, human. The procedure:
We examined several time points, specifically, 15 min, 2 h, and 48 h (Figure 6).
Figure 6 Validation of kinome analysis data. 22Rv1 cells were treated with 1 µM or 10 µM of NB for the indicated time. The protein expression was analyzed by Western blotting using total protein load equal to 30 µg/slot. α-Tubulin was used as a loading control.
The Western blot assay was executed as previously described: 1 × 10^6 cells were seeded in Petri dishes (ø 6 cm, 5 mL/dish) and incubated overnight. On the next day, the cells were treated with the compounds in fresh culture media (5 mL/dish) for the indicated time. Next, cells were harvested with a cell scraper and lysed in lysis buffer including protease and phosphatase inhibitors cocktail (Roche, Mannheim, Germany). Cell debris were removed from the protein lysates via centrifugation. Afterwards, the cell-free protein mixtures were separated in gradient ready-made Mini-PROTEAN® TGX Stain-Free^TM gels (Bio-Rad, Hercules, CA, USA) using SDS-PAGE (sodium dodecylsulfate polyacrylamide gel electrophoresis). Then, the proteins were blotted onto ø 0.2 µm pore PVDF membrane. The membrane was blocked and consequently treated with primary and secondary antibodies for protein detection. The signals were detected using the ECL chemiluminescence system (Thermo Scientific, Rockford, IL, USA).

Data set [3] deals with 22Rv1. Nature of the data set: Colony formation assay. Conditions: 22Rv1, 48 h treatment then 14 days, nanomolar concentrations. The class given is cell-based, human. The method, then:
(§2) Next, we investigated the effect of NB on the ability of cancer cells to form colonies from single cells using a colony formation assay and a preplating mode. […] However, this speculation awaits further confirmation in vivo.
(§3) Figure 3 Colony formation assay. The human cancer cells were seeded in 6-well plates and treated for 48 h with the indicated concentrations of NB. Then, the media was exchanged, and the plates were incubated for 14 days, which was followed by fixation, staining, and counting. Number of replicates n = 3. Statistical significance: * p < 0.05 (ANOVA).

The next data set has as its system PC3. Nature of the data set: Colony formation assay. The settings on record: PC3, 48 h treatment then 14 days, nanomolar concentrations. The class given is cell-based, human. The method, then: as §2, §3
A further data set has as its system VCaP. Nature of the data set: Colony formation assay. Format: cell-based, human. Conditions: 48 h treatment then 14 days, nanomolar concentrations. The procedure: as §2, §3
The subject of a further data set is PC-3. More on the design: method as in PMID 27355960. The settings on record: cited from earlier work.
Data set [4] has as its system 22Rv1. More on the design: method as in PMID 27355960. Conditions: cited from earlier work.

Where only a bound is given, the exact number is not on record here.

Chain of p-glycoprotein (p-gp, MDR1) in PC3-DR cells (P08183 whole entry): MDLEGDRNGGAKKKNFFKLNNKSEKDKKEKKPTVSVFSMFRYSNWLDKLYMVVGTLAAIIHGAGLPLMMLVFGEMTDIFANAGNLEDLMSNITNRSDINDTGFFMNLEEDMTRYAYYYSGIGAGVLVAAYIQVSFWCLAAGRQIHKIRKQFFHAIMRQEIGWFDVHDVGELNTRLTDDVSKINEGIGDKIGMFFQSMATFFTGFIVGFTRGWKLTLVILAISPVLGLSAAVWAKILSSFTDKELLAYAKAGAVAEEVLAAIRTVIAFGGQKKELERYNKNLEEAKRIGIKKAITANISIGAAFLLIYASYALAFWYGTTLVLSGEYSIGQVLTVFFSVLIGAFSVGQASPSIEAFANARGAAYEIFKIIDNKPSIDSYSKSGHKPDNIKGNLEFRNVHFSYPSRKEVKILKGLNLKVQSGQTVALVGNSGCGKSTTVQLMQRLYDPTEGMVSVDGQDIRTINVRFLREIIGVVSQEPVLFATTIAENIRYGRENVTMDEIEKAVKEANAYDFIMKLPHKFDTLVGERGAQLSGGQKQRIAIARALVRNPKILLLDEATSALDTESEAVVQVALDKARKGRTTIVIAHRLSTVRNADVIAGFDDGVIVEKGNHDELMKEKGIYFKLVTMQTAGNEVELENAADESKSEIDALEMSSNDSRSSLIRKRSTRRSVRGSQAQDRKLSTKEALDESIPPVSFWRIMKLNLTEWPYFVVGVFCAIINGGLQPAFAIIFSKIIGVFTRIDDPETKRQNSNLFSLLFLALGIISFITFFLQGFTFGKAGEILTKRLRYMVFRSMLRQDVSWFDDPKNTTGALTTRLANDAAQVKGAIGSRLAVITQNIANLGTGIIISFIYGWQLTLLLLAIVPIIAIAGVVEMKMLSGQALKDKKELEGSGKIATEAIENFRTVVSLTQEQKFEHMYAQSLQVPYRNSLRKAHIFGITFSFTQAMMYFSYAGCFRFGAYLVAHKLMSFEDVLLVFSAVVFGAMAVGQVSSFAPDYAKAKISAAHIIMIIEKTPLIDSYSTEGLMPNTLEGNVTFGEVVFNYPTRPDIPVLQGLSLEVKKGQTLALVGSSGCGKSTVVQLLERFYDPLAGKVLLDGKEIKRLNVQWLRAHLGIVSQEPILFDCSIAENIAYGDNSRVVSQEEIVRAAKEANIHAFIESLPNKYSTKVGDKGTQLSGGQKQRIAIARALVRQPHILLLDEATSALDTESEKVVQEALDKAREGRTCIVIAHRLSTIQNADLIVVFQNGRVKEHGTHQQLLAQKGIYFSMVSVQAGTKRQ

In the case of `COc1ccc(C2SSC34CC5(O)C(Cl)C=CC(O)C5ON3C(=O)C2N(C)C4=O)c(O)c1OC` (centres unmarked) [NB, N-methylpretrichodermamide B], in the data set on PC3-DR cells, the “cytotoxicity when co-treated with TQD” value is “increased”. Also, the “calcein accumulation (green fluorescence), p-gp inhibition” value in data set [1] (30 min exposure, nanomolar concentrations, dose-dependent) was “significantly increased the green fluorescence”. Also, the “concentration at which an inhibitory effect on p-gp activity was already detected” value in data set [1] (calcein-AM, noncytotoxic concentration) was 312.5 nM. Moreover, the p-gp expression entry in the data set on p-gp in PC3-DR cells is given as “no significant changes in p-gp expression”. Also, the IC50 is ≥ 100 µM in data set [2], 5.11 µM with PC-3 and 0.51 µM in the data set with 22Rv1 [4]. The “effect on autophagy (LC3B-I/II expression)” value with LC3B-I/II in 22Rv1 cells is reported as “no significant effect on autophagy”. Moreover, the colony-formation ability result in the data set on 22Rv1 [3], in the data set with PC3 and with VCaP was “inhibit the colony-formation ability” throughout.

Usually IC50 stands for the concentration that gives 50% inhibition.
